Source: article PMC7044277 (Nature Communications, 2020)
Where “and” joins values, the source holds several entries; their conditions need not be identical. Identical values can stand only once.

How the values were obtained:
Type in all cases: cell-based
320 non-olfactory GPCRs [1] = molecular target: T1, 320 non-olfactory GPCRs (Homo sapiens, UniProt O14842)
T1 construct: expressed in transfected cells; host or cells: HTLA cells

320 non-olfactory GPCRs [2] = molecular target: 320 non-olfactory GPCRs (Homo sapiens, UniProt O95665); settings: receptor NTSR2; replicate values, Fig_4g
320 non-olfactory GPCRs [3] = molecular target: 320 non-olfactory GPCRs (Homo sapiens, UniProt P07550)
320 non-olfactory GPCRs [4] = molecular target: T2, 320 non-olfactory GPCRs (Homo sapiens, UniProt Q9HB89); settings: receptor NMUR1; replicate values, Fig_4g
T2 construct: expressed in transfected cells; host or cells: HTLA cells
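Throughout, for Fold of Basal: compound tested at 1 µM final concentration.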
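Throughout, for GPCRome agonism screen response: fold over basal response of each receptor without drug.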

T1 sequence (O14842 whole entry): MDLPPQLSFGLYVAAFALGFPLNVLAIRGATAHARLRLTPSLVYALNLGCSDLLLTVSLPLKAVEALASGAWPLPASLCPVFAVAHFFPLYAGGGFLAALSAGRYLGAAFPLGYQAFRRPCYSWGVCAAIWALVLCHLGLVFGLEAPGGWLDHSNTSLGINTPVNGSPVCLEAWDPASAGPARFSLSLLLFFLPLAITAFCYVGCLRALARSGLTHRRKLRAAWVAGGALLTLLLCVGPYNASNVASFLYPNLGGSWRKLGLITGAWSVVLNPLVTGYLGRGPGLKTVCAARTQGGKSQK
Sequence of 320 non-olfactory GPCRs (Homo sapiens, UniProt O95665) (O95665 whole entry): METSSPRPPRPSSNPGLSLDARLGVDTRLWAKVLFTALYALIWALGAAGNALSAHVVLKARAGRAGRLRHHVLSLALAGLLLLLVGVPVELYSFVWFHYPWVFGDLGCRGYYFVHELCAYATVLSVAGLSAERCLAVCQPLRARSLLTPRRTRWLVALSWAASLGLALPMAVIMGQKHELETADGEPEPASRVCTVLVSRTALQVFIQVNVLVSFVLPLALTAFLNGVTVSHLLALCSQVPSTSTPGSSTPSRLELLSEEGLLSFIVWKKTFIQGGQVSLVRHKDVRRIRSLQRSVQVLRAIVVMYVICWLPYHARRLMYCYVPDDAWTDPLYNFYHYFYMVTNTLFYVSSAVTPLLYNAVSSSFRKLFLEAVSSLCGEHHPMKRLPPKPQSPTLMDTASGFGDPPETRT
Sequence of 320 non-olfactory GPCRs (Homo sapiens, UniProt P07550) (P07550 whole entry): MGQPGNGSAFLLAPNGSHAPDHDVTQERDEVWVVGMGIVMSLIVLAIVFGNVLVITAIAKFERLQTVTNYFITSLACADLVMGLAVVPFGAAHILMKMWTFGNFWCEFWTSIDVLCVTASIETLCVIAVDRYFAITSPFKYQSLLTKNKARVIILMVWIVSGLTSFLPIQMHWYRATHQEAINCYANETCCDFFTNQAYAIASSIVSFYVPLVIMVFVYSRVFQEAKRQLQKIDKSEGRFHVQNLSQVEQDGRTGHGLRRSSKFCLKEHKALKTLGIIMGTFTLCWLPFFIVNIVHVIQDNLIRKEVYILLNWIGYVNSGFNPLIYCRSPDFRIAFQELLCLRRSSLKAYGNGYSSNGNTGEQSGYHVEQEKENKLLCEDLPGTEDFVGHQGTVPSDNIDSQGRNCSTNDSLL
T2 sequence (Q9HB89 whole entry): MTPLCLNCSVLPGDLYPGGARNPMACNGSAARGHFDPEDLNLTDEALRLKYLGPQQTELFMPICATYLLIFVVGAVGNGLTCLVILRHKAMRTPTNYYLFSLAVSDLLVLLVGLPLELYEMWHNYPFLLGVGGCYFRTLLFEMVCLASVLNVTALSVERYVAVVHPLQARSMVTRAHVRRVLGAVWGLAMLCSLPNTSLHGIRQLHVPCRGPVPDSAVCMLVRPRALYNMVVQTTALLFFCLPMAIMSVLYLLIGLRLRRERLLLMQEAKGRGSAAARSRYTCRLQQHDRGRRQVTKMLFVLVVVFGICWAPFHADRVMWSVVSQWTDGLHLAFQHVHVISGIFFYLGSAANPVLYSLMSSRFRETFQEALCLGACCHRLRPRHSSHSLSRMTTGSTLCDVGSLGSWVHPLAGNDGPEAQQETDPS

SMILES: CCOc1cccc2cc(C(C)NCC3(O)CCCCC3)oc12 (stereo not shown) [O4LE6]
- Fold of Basal (320 non-olfactory GPCRs [1]): 1.069 and 1.057 and 1.21 and 0.9963
- GPCRome agonism screen response (320 non-olfactory GPCRs [2]): 0.5368 and 0.5673 and 0.48 and 0.67
- Fold of Basal (320 non-olfactory GPCRs [3]): 0.7944 and 1.208 and 1.018 and 0.6397
- GPCRome agonism screen response (320 non-olfactory GPCRs [4]): 1.001 and 1.011 and 0.9191 and 1.865
